# Reference: ChEMBL document CHEMBL1201862, “PubChem BioAssay data set” (2004)
#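 The compound was tested at five concentrations on cells cultured in 96-well plates, with a 48-hour exposure period. GI50 is the concentration that inhibits growth by half.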 Calls of active or inactive are those of the source. Rule as the data show it: active = GI50 up to about 1.1 µM and inactive = higher.
# What was measured:
# Assay in all cases: DTP human tumour cell line panel, 48 h
# 786-0 = test system: 786-0
# CAKI-1 = test system: CAKI-1
# HOP-62 = test system: HOP-62
# K562 = test system: K562
# KM12 = test system: KM12
# LOX IMVI = test system: LOX IMVI
# M14 = test system: M14
# SF-539 = test system: SF-539
# SN12C = test system: SN12C
# SNB-19 = test system: SNB-19
# SNB-75 = test system: SNB-75
# SNB-78 = test system: SNB-78
# SW-620 = test system: SW-620
# UACC-257 = test system: UACC-257
# A498 = test system: A498
# HCT-116 = test system: HCT-116
# OVCAR-5 = test system: OVCAR-5
# BT-549 = test system: BT-549
# DU-145 = test system: DU-145
# PC-3 = test system: PC-3
Compound,GI50 (786-0),GI50 (CAKI-1),GI50 (HOP-62),GI50 (K562),GI50 (KM12),GI50 (LOX IMVI),GI50 (M14),GI50 (SF-539),GI50 (SN12C),GI50 (SNB-19),GI50 (SNB-75),GI50 (SNB-78),GI50 (SW-620),GI50 (UACC-257),GI50 (A498),GI50 (HCT-116),GI50 (OVCAR-5),GI50 (BT-549),GI50 (DU-145),GI50 (PC-3)
O=C(C#Cc1ccccc1)Nc1ccccc1CC(c1c[nH]c2ccccc12)c1c[nH]c2ccccc12,9.53 µM (inactive),16.9 µM (inactive),39.6 µM (inactive),4.47 µM (inactive),14.7 µM (inactive),7.43 µM (inactive),15.6 µM (inactive),12.3 µM (inactive),8.83 µM (inactive),26 µM (inactive),5.9 µM (inactive),11.5 µM (inactive),12.1 µM (inactive),23.8 µM (inactive),–,–,–,–,–,–
O=C(O)CNCc1c2ccccc2[n+]([O-])c2ccccc12,58.2 µM (inactive),> 100 µM (inactive),> 100 µM (inactive),38.2 µM (inactive),51.1 µM (inactive),36.6 µM (inactive),> 100 µM (inactive),–,73.6 µM (inactive),> 100 µM (inactive),34.5 µM (inactive),92.3 µM (inactive),47 µM (inactive),> 100 µM (inactive),> 100 µM (inactive),20.2 µM (inactive),> 100 µM (inactive),–,–,–
COc1ccc(OC)c(NC(=O)C2=C(C)NC(C)=C(C(=O)Nc3cc(OC)ccc3OC)C2c2ccco2)c1,> 100 µM (inactive),89.5 µM (inactive),> 100 µM (inactive),> 100 µM (inactive),> 100 µM (inactive),–,> 100 µM (inactive),> 100 µM (inactive),> 100 µM (inactive),> 100 µM (inactive),> 100 µM (inactive),> 100 µM (inactive),> 100 µM (inactive),–,> 100 µM (inactive),> 100 µM (inactive),> 100 µM (inactive),–,–,–
O=C1CCC(=O)C12CCc1cccc(O)c12,> 100 µM (inactive),> 100 µM (inactive),> 100 µM (inactive),> 100 µM (inactive),–,> 100 µM (inactive),> 100 µM (inactive),–,> 100 µM (inactive),–,39 µM (inactive),> 100 µM (inactive),> 100 µM (inactive),–,–,–,–,–,–,–
CCCOC(=O)C1CCC(=O)N1C(=O)C(C)Cl (stereo not drawn),> 100 µM (inactive),> 100 µM (inactive),> 100 µM (inactive),> 100 µM (inactive),> 100 µM (inactive),> 100 µM (inactive),> 100 µM (inactive),–,> 100 µM (inactive),> 100 µM (inactive),> 100 µM (inactive),> 100 µM (inactive),> 100 µM (inactive),> 100 µM (inactive),> 100 µM (inactive),> 100 µM (inactive),> 100 µM (inactive),–,–,–
COc1cc(C2c3cc4c(cc3[C@@H](NCCN3CCCCC3)C3COC(=O)[C@H]23)OCO4)cc(OC)c1O (stereo partly drawn),0.179 µM (active),0.0918 µM (active),0.064 µM (active),0.615 µM (active),1.01 µM (active),0.237 µM (active),0.273 µM (active),0.134 µM (active),1.91 µM (inactive),0.354 µM (active),–,2.57 µM (inactive),1.04 µM (active),2.78 µM (inactive),0.165 µM (active),1.15 µM (inactive),1.41 µM (inactive),–,–,–
Cc1c(O)c(=O)ccn1CCO,> 100 µM (inactive),> 100 µM (inactive),> 100 µM (inactive),> 100 µM (inactive),> 100 µM (inactive),> 100 µM (inactive),> 100 µM (inactive),–,> 100 µM (inactive),> 100 µM (inactive),> 100 µM (inactive),> 100 µM (inactive),> 100 µM (inactive),> 100 µM (inactive),> 100 µM (inactive),> 100 µM (inactive),> 100 µM (inactive),–,–,–
C/C(=N\N=C(\N)S)c1ccc(Oc2ccccc2)cc1,4.05 µM (inactive),–,20.5 µM (inactive),4.83 µM (inactive),–,13.5 µM (inactive),9.98 µM (inactive),5.38 µM (inactive),11.4 µM (inactive),16 µM (inactive),7.38 µM (inactive),14.2 µM (inactive),16.3 µM (inactive),–,13.7 µM (inactive),10.2 µM (inactive),–,–,–,–
CCN(CC)c1ccc(C2N3CCCCC3[C@@H]3c4[nH]c5ccccc5c4CCN23)cc1 (stereo partly drawn),37.8 µM (inactive),74.3 µM (inactive),> 100 µM (inactive),15.2 µM (inactive),–,–,24.8 µM (inactive),18.3 µM (inactive),19.7 µM (inactive),32.5 µM (inactive),6.11 µM (inactive),22.1 µM (inactive),33.5 µM (inactive),27.7 µM (inactive),14.5 µM (inactive),16.1 µM (inactive),51.3 µM (inactive),–,–,–
Cc1c(O)c(=O)ccn1CCN,> 100 µM (inactive),> 100 µM (inactive),–,> 100 µM (inactive),> 100 µM (inactive),> 100 µM (inactive),> 100 µM (inactive),–,> 100 µM (inactive),> 100 µM (inactive),> 100 µM (inactive),> 100 µM (inactive),> 100 µM (inactive),> 100 µM (inactive),> 100 µM (inactive),> 100 µM (inactive),> 100 µM (inactive),–,–,–
O=C1C=CC(=O)c2c1cc([N+](=O)[O-])c1ccoc21,1.77 µM (inactive),1.6 µM (inactive),16.5 µM (inactive),2.75 µM (inactive),15.9 µM (inactive),9.66 µM (inactive),6.17 µM (inactive),27.2 µM (inactive),15.2 µM (inactive),21.5 µM (inactive),26.1 µM (inactive),–,2.36 µM (inactive),10.7 µM (inactive),15.5 µM (inactive),6.03 µM (inactive),18.5 µM (inactive),16.9 µM (inactive),9.06 µM (inactive),15.6 µM (inactive)
c1ccc(CSc2nnc3c4ccccc4c4ccccc4c3n2)cc1,34.8 µM (inactive),78.9 µM (inactive),24.8 µM (inactive),14.8 µM (inactive),> 100 µM (inactive),62.7 µM (inactive),> 100 µM (inactive),31.4 µM (inactive),> 93.8 µM (inactive),33.2 µM (inactive),8.73 µM (inactive),–,38.2 µM (inactive),> 100 µM (inactive),> 64.1 µM (inactive),> 82.4 µM (inactive),> 100 µM (inactive),50 µM (inactive),> 82.2 µM (inactive),64.9 µM (inactive)
O=C(O)COc1cc(-c2ccccc2)nc2ccc(F)cc12,> 100 µM (inactive),> 100 µM (inactive),> 100 µM (inactive),> 100 µM (inactive),> 100 µM (inactive),> 100 µM (inactive),> 100 µM (inactive),> 100 µM (inactive),> 100 µM (inactive),> 100 µM (inactive),> 100 µM (inactive),–,> 100 µM (inactive),> 100 µM (inactive),> 100 µM (inactive),> 100 µM (inactive),> 100 µM (inactive),> 100 µM (inactive),> 100 µM (inactive),> 100 µM (inactive)
